According to patent US8324280B2, “Treatment of prostate cancer with DDC inhibitor” (The University of British Columbia, priority 2008, dated 2012):

Tests used:
C4-2 cells = assay: MTS cell proliferation assay, androgen-independent C4-2 cells; type: cell-based, human; settings: 25 μM
Protocol: Cell proliferation assays were performed using the 3-(4,5-dimethylhiazol-2-yl)-5-(3-carboxymethoxyphenyl)-2-(4-sulfophenyl)-2H-tetrazolium Assay (MTS) according to the manufacturer's protocol, with minor modifications (Promega). C4-2 cells were plated in 96-well plates at a density of 750 cells per well in RPMI medium containing 5% CSS for 1 day. On the following day, the DDC inhibitors, carbidopa (25 μM) and NSD-1015 (10 μM)±0.1 nM R1881 were added to each well in charcoal-stripped serum (CSS; Hyclone, VWR) RPMI media. The cells were harvested at days 0, 2, 4, and 6, with a medium change every 3 days. Each time point was measured with 6 replicates.
Student's t-test (two-sample equal variance) was used to evaluate statistically significant differences. All calculated p-values were two-sided and those less than 0.05 were considered statistically significant.

[1] = tested on: parental LNCaP xenografts; assay: Parental LNCaP tumour xenografts in castrated mice, progression to androgen-independence; type: in vivo
Protocol: Parental LNCaP cells were inoculated subcutaneously (s.c.), after resuspension in 0.1 mL of Matrigel (Becton Dickinson Labware), into two flank regions (2.5×10^6 cells/site) of 6 to 8 week old male athymic nude mice (Harlan Sprague Dawley, Inc.) via a 27-gauge needle under halothane anesthesia. Tumour volume and serum PSA measurements (blood collected from the tail vein) were performed once per week after tumours became palpable. PSA levels were measured by ELISA (ClinPro International) and tumour size was calculated by the formula; length×width×depth×0.5236. Once serum PSA values reached 75-100 ng/mL, mice were castrated and treated with or without carbidopa. Carbidopa was purchased from Sigma and dissolved in DMSO. The solution was diluted in PBS to a final concentration of 10% DMSO and sterilized through a 0.2 μm filter. Carbidopa solution was injected intraperitoneally into half of the mice (25 mg per kg of body weight) for the +carbidopa group, while the remaining mice received vehicle injections consisting of 10% DMSO in PBS (−carbidopa group). Injections were carried out daily for the duration of the experiment. Each animal group contained 5-6 mice. Serum PSA and tumour volume values were measured with progression to androgen-independence and normalized to pretreatment values (set at 100%) to obtain the mean percentage PSA and mean tumour volume of pre-treatment (±SEM). All animal procedures were performed according to the guidelines of the Canadian Council of Animal Care and with appropriate institutional certification. Statistical analysis was performed using the Student's t-test (two-sample equal variance) with JMPIN statistical software (Version 4.0.2, SAS Institute Inc.).

[2] = tested on: pure neuroendocrine tumour; settings: in combination with other drugs; implanted prostate NE cancer cells; cited from earlier work
LNCaP-DDC xenografts = assay: LNCaP-DDC (DDC overexpressing) tumour xenografts with carbidopa treatment; type: in vivo, mice; settings: 25 mg/kg intraperitoneally daily, Dox
Protocol: (§1) LNCaP-DDC and LNCaP-Vector control cells were inoculated subcutaneously (s.c.), after resuspension in 0.1 mL of Matrigel (Becton Dickinson Labware), into two flank regions (2.5×10^6 cells/site) of 6 to 8 week old male athymic nude mice (Harlan Sprague Dawley, Inc.) via a 27-gauge needle under halothane anesthesia. Tumour volume and serum PSA measurements (blood collected from the tail vein) were performed once per week after tumours became palpable. PSA levels were measured by ELISA (ClinPro International) and tumour size was calculated by the formula; length×width×depth×0.5236. Once serum PSA values reached 75-100 ng/mL, mice in both the LNCaP-DDC and LNCaP-Vector control groups were given Dox-treated water (200 μg/mL) and treated with or without carbidopa. Carbidopa was purchased from Sigma and dissolved in DMSO. The solution was diluted in PBS to a final concentration of 10% DMSO and sterilized through a 0.2 μm filter. Carbidopa solution was injected intraperitoneally into half of the mice (25 mg per kg of body weight) for the +carbidopa groups, while the remaining mice received vehicle injections consisting of 10% DMSO in PBS (−carbidopa groups). Injections were carried out daily for the duration of the experiment. […] PSA velocity and tumour growth rate differences were determined by one-way ANOVA and Tukey's multiple comparison test. […]

[3] = tested on: LNCaP-Vector control xenografts; assay: LNCaP-Vector control tumour xenografts with carbidopa treatment; type: in vivo, mice; settings: 25 mg/kg intraperitoneally daily, Dox, endogenous DDC only
Protocol: as §1

SMILES: C[C@@](Cc1ccc(O)c(O)c1)(NN)C(=O)O [carbidopa, α-Methyl-dopahydrazine]
- reduction of number of cells relative to control non-treated cells (C4-2 cells; day 6, absence of androgen): 1.58 fold
- reduction of number of cells relative to control non-treated cells (C4-2 cells; day 6, presence of androgen (0.1 nM R1881)): 1.80 fold
- decrease in PSA level with treatment versus control group ([1]; 11 weeks): 4.3 fold
- decrease in tumour growth versus control group ([1]; 11 weeks): 5.4 fold
- tumour volume, of pre-treatment ([1]; castrated mice, 25 mg/kg i.p. daily, 11 weeks): 478±97%
- serum PSA level, of pre-treatment ([1]; castrated mice, 25 mg/kg i.p. daily, 11 weeks (termination)): 167±36%
- serum PSA level, of pre-treatment ([1]; castrated mice, 25 mg/kg i.p. daily, week 1): 38±5%
- serum PSA level, of pre-treatment ([1]; castrated mice, 25 mg/kg i.p. daily, week 10): 148±34%
- increase of tumour volume from pre-treatment volume ([1]; over 11 weeks): about 5 fold
- reduction of tumour growth [2]: 40%
- PSA velocity (rate of PSA production) (LNCaP-DDC xenografts; over 35 days, PSA normalized to pre-treatment 100%): 14.7±0.6
- tumour growth rate (LNCaP-DDC xenografts; over 49 days, volume normalized to pre-treatment 100%): 22.5±3
- PSA velocity (rate of PSA production) ([3]; over 35 days): 7.2±1
- tumour growth rate ([3]; over 49 days): 9.8±2
